Measured values reported in patent US6916840B2, “Spla2 inhibitors” (Eli Lilly and Company, priority 2000, dated 2005).

Tests used:
[1] = target: T1, recombinant human secreted phospholipase A2 (sPLA2) (Homo sapiens, UniProt P14555); assay: chromogenic assay for inhibitors of recombinant human secreted phospholipase A2; type: biochemical; conditions: diheptanoyl thio-PC substrate 1 mM, Triton X-100 mixed micelles, pH 7.5, 40° C. for 30 minutes, absorbance at 405 nm, triplicate
T1 sequence (P14555 21-144): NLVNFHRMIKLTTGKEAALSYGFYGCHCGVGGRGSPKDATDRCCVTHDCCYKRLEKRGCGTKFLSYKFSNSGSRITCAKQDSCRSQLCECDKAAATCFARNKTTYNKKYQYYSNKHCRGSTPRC
Excerpt: The following chromogenic assay procedure was used to identify and evaluate inhibitors of recombinant human secreted phospholipase A2. The assay described herein has been adapted for high volume screening using 96 well microtiter plates. A general description of this assay method is found in the article, “Analysis of Human Synovial Fluid Phospholipase A2 on Short Chain Phosphatidylcholine-Mixed Micelles: Development of a Spectrophotometric Assay Suitable for a Microtiterplate Reader”, by Laure J. Reynolds, Lori L. Hughes, and Edward A Dennis, Analytical Biochemistry, 204, pp. 190-197, 1992 (the disclosure of which is incorporated herein by reference):
A measured volume of racemic dipheptanoyl thio PC supplied in chloroform at a concentration of 100 mg/ml is taken to dryness and redissolved in 10 millimolar TRITON X-100™ nonionic detergent aqueous solution. Reaction Buffer is added to the solution, then DTNB to give the Reaction Mixture.
The reaction mixture thus obtained contains 1 mM diheptanoly thio-PC substrate, 0.29 mm Triton X-100™ detergent, and 0.12 mm DTMB in a buffered aqueous solution at pH 7.5.
• 1. Add 0.2 ml reaction mixture to all wells; • 2. Add 10 ul test compound (or solvent blank) to appropriate wells, mix 20 seconds; • 3. Add 50 nanograms of sPLA2 (10 microliters) to appropriate wells; • 4. Incubate plate at 40° C. for 30 minutes; • 5. Read absorbance of wells at 405 nanometers with an automatic plate reader.
Tests were done in triplicate. Typically, compounds were tested at a final concentration of 5 ug/ml. […] Lack of color development at 405 nanometers evidenced inhibition. Compounds initially found to be active were re-assayed to confirm their activity and, if sufficiently active, IC50 values were determined. […] In all cases, % inhibition measured at 405 nanometers generated by enzyme reactions containing inhibitors relative to the uninhibited control reactions was determined. Each sample was titrated in triplicate and result values were averaged for plotting and calculation of IC50 values. IC50 values were determined by plotting log concentration versus inhibition values in the range from 10-90% inhibition.

melting point [°C] | Compound | IC50 [1] [µM]
– | COC(=O)COc1cc2ccccc2c2c1c(C(=O)C(N)=O)c(C)n2CC1CCCCC1 [Example 3, 2-[[3-(2-amino-1,2-dioxoethyl)-2-methyl-1-cyclohexylmethyl-1H-benz[g]indol-4-yl]oxy]acetic acid methyl ester] | 0.148
– | Cc1c(C(=O)C(N)=O)c2c(OCC(=O)O)cc3ccccc3c2n1Cc1cccc(-c2ccc(F)cc2)c1 [Example 6, 2-[[3-(2-Amino-1,2-dioxoethyl)-2-methyl-1-[3-(4-fluorophenyl)benzyl]-1H-benz[g]indol-4-yl]oxy]acetic acid.] | 0.021
– | COC(=O)COc1cc2ccccc2c2c1c(C(=O)C(N)=O)c(C)n2Cc1cccc(-c2ccc(F)cc2)c1 [Example 5, 2-[[3-(2-Amino-1,2-dioxoethyl)-2-methyl-1-[3-(4-fluorophenyl)benzyl]-1H-benz[g]indol-4-yl]oxy]acetic acid methyl ester] | 0.176
165 to 167 | CCc1c(C(=O)C(N)=O)c2c(OCC(=O)OC)cc3ccccc3c2n1Cc1ccccc1 (hydrate or solvate) [Example 1, 2-[[3-(2-Amino-1,2-dioxoethyl)-2-ethyl-1-benzyl-1H-benz[g]indol-4-yl]oxy]acetic acid methyl ester hemihydrate] | –
– | CCc1c(C(=O)C(N)=O)c2c(OCC(=O)O)cc3ccccc3c2n1Cc1ccccc1 [Example 2, 2-[[3-(2-Amino-1,2-dioxoethyl)-2-ethyl-1-benzyl-1H-benz[g]indol-4-yl]oxy]acetic acid] | 0.01
– | CCc1c(C(=O)C(N)=O)c2c(OCC(=O)OC)cc3ccccc3c2n1Cc1ccccc1 [Example 1, 2-[[3-(2-Amino-1,2-dioxoethyl)-2-ethyl-1-benzyl-1H-benz[g]indol-4-yl]oxy]acetic acid methyl ester hemihydrate] | 0.048
– | Cc1c(C(=O)C(N)=O)c2c(OCC(=O)O)cc3ccccc3c2n1CC1CCCCC1 [Example 4, 2-[[3-(2-Amino-1,2-dioxoethyl)-2-methyl-1-cyclohexylmethyl-1H-benz[g]indol-4-yl]oxy]acetic acid] | 0.011
